# Results taken from patent US10077436B2, “Beta-glucosidase enzymes for increased biomass saccharification” (Edeniq, Inc., priority 2013, dated 2018).
# Target: T1, Aspergillus niger beta-glucosidase (CAB75696.1, SEQ ID NO:2) improved variant yEdQ885-BG (Aspergillus niger, UniProt Q9P8F4, Y363C/Y375F/Y610F)
# T1 construct: strain yEdQ885, BG acid/base mutant #8
# T1 sequence (Q9P8F4 20-860 Y363C/Y375F/Y610F): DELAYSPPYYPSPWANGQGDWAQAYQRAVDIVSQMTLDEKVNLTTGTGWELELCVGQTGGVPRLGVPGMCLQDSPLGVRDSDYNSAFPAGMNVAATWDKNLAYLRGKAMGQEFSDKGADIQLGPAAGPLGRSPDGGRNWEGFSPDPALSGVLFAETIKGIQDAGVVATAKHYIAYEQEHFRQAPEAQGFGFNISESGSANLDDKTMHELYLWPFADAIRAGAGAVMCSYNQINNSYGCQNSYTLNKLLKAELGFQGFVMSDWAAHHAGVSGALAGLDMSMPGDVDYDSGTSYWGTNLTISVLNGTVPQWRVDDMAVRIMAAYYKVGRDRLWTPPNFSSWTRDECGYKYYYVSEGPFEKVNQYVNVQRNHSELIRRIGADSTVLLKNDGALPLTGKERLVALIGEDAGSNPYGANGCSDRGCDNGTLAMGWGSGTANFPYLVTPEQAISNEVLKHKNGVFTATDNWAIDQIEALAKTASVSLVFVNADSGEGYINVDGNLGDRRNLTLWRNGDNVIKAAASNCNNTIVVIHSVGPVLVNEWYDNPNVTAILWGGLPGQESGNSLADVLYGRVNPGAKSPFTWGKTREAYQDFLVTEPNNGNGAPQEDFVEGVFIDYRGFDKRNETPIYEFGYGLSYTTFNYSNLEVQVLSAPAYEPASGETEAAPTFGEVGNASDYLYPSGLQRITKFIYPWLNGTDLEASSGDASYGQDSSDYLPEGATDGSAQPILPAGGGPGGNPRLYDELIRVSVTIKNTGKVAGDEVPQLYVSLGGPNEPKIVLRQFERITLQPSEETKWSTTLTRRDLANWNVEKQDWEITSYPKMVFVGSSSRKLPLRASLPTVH
# Test: BG kinetics, cellobiose hydrolysis assay (HPLC) with glucose as competitive inhibitor, yEdQ885-BG
# Format: biochemical
# Source text: The beta-glucosidase (BG) gene from Aspergillus niger (Accession #CAB75696.1) was integrated into the TR3 yeast background at the T4U3 genomic site.
# High resolution enzyme assays and kinetic testing comparing the beta-glucosidases described herein and commercial enzyme preparations were pursued to more clearly quantify differences in mutant BG enzymes compared to the wild type BG enzyme. Based on data presented herein, BG mutant YEdQ885 was selected for further analysis and compared to the BG activity present in commercial preparations of SP188 (Novozymes) and Accellerase® BG (DuPont) as well as wild type BG.
# The kinetic properties of beta glucosidase are important for cellulosic hydrolysis, since in commercial situations a wide range of substrate concentrations and different product inhibition conditions will be encountered. In this example, a Michaelis-Menten kinetics model was used to describe BG kinetics. To determine these kinetic properties, BG activity assays using standard substrates pNPG and cellobiose were employed. yEdQ745-BG (wild type) and yEdQ885-BG (improved), were compared with two commercial BGs, A-BG (Accellerase®) BG from Dupont) and S-BG (Novozymes SP188 from Sigma). […]
compound,measurement,setting,value
OC[C@H]1OC(O)[C@H](O)[C@@H](O)[C@@H]1O (some centres unmarked) [glucose],Ki,,1110 ± 190 µM
same,Km/Ki,"inhibitor influence, Km for cellobiose / Ki for glucose, pH 4.8, 50° C.",1.31
